Values of other authors, collected in US9597362B2, “Use of probiotic bacteria in the treatment of infection” (TEAGASC, THE AGRICULTURE AND FOOD DEVELOPMENT AUTHORITY, priority 2003, dated 2017).

Experiments:
[1] = test system: Gram-positive bacteria; settings: including methicillin resistant staphylococci, vancomycin resistant enterococci, penicillin resistant pneumococci
[2] = test system: Salmonella typhimurium

Substance | bactericidal spectrum [1] | pathogen translocation compared with control mice ([2]; mice fed the probiotic prior to oral challenge) | survival ([2]; probiotic-fed groups)
Lacticin 3147 | kills all Gram-positive bacteria tested to date | – | –
Lactobacillus acidophilus | – | reduced pathogen translocation to the spleen and liver | increased survival of mice
